We go through 5 compounds from patent US5798365A, “Substituted quinoline derivatives, a process for their preparation, and their use” (Hoechst Aktiengesellschaft, priority 1994, dated 1998).

The test system of one assay is HIV. The experiment in a line: Testing preparations against HIV in cell culture (infected human donor lymphocytes). The class given is cell-based. The following applies: HIV-infected lymphocytes, 3 days, 37° C.; for MIC: Human immunodeficiency virus 1, 72 h, lowest concentration without giant cells; for IC50: Human immunodeficiency virus 1, Lymphocyte, 72 h, read-out: IC-50. The method, then: Testing preparations against HIV in cell culture
Description of the method
The complete medium additionally contains 20% foetal calf serum and 40 IU/ml recombinant interleukin 2.
Lymphocytes which have been isolated from fresh donor blood by means of Ficoll® gradient centrifugation are cultured, at 37° C. for 36 h and under 5% CO2, in complete medium in the added presence of […] phytohemagglutinin (Wellcome). After the addition of 10% DMSO, the cells are frozen at a cell density of 5×10^6 and stored in liquid nitrogen. For the experiment, the cells are thawed, washed in RPMI medium and cultured for 3-4 days in complete medium.
The preparations for testing were dissolved in DMSO at a concentration of 16.7 mg/ml and diluted to 1 mg/ml in complete medium. 0.4 ml of medium was initially introduced in 24-well multiwell plates. After 0.1 ml of the dissolved preparation had been added to the upper row of the plate, a geometrical dilution series was produced by transferring 0.1 ml on each occasion. Preparation-free controls always contained 0.4 ml of complete medium containing 0.5% DMSO.
Lymphocyte cultures having a cell count of 5×10^5 cells/ml were infected by adding a 1/50 volume of the supernatant from lymphocyte cultures infected with HIV. The titer of these culture supernatants was determined, by end point dilution, to be 1-5×10^6 infectious units/ml. After incubating at 37° C. for 30 min, the infected lymphocytes were centrifuged off and taken up once again in the same volume of medium. 0.6 ml of this cell suspension was added to each of the wells in the test plate. The assay mixtures were incubated at 37° C. for 3 days.
The infected cell cultures were examined under the microscope for the presence of giant cells, which indicate that the virus is multiplying actively in the culture. The lowest preparation concentration at which no giant cells appeared was defined as the inhibitory concentration against HIV (MIC value). As a control, the presence of HIV antigen in the supernatants from the culture plates was determined using a test for HIV antigen in accordance with the manufacturer's (Organon) instructions.

For assay [1], the target named is T1, HIV reverse transcriptase (Human immunodeficiency virus type 1 group M subtype B, UniProt P04585).
T1 construct: purchased HT-Biotechnology LTD, Cambridge, UK; host or cells: E. coli
The experiment in a line: Inhibition of HIV reverse transcriptase, scintillation proximity assay (SPA). The class given is biochemical. The settings on record: RT-SPA, 60 min, 37° C., read-out: Reverse Transcriptase Asaay IC-50 (converted). The method, then:
Investigation of the ability of the substances to inhibit the HIV reverse transcriptase
The activity of the reverse transcriptase (RT) was measured by means of a scintillation proximity assay (SPA).
The reagent kit for the RT-SPA was obtained from Amersham/Buchler (Braunschweig). The RT enzyme (originating from HIV and cloned in E. coli) was provided by HT-Biotechnology LTD, Cambridge, UK.
The test was carried out in accordance with the supplier's (Amersham) methods manual--with the following modifications:
bovine serum albumin was added to the assay buffer to a final concentration of 0.5 mg/ml.
The test was carried out in Eppendorf reaction tubes using a mixture volume of […].
The supplier's RT concentrate (5000 U/ml) was diluted in 20 mM tris-HCl buffer; pH 7.2; 30% glycerol to an activity of 15 U/ml.
The assay mixtures were incubated for 60 min (at 37° C.).
After the reaction had been stopped and "developed" using the bead suspension, […] of assay mixture was transferred into 4.5 ml of 10 mM tris-HCl buffer; pH 7.4; 0.15M NaCl
and the tritium activity was measured in a β counter.
In order to carry out a preliminary test for inhibitor activity, the substances were dissolved in DMSO (stock solution concentration=1 mg/ml) and tested at 10^-1, 10^-2, 10^-3, etc. dilutions in DMSO.
In order to determine the IC50 values, the stock solutions of inhibitor were further diluted in 50 mM tris-HCl buffer, pH 8, and tested at suitable concentrations.
The concentration giving rise to 50% inhibition of the enzyme was ascertained from the graphic depiction of RT activity versus log Cinh.
Background: SPA uses beads or plates that emit light when radiolabelled molecules are held near them.

In brackets after ≈: the same amount, converted by molar mass. Read-outs that look alike come from different tables or passages of the source.

Take `CCC1(CC)C(=O)Nc2ccccc2C1=CCC(C)C` [Compound 52]: the MIC in the assay on HIV is 0.02 µg/mL (≈ 0.0737 µM). Besides, the IC50 in the assay with HIV was around 0.004 µg/mL (≈ 0.0147 µM); in assay [1] (molar value in parentheses), 43 nM; in assay [1] it was 44.2 nM.
The corresponding values for `CCCC=C1c2cc(Cl)ccc2NC(=NO)C1(C)C` [Compound 60] are 0.0016 µg/mL (≈ 0.00574 µM), around 0.0003 µg/mL (≈ 0.00108 µM), 12 nM and 10.8 nM.
The compound `CCCC=C1c2ccccc2NC(=O)C12CCC2` [Compound 5] came in with an MIC against HIV of 0.2 µg/mL (≈ 0.829 µM). Further, the results for the IC50 (with HIV; in assay [1] (molar value in parentheses); in assay [1]) were 0.04 µg/mL (≈ 0.166 µM), 479 nM and 479 nM, respectively.
For `COc1ccc2c(c1)C(=C1CCCC1)C(C)(C)C(=S)N2` [Compound 140], in the assay on HIV, the MIC stood at 0.2 µg/mL (≈ 0.696 µM) and the IC50 came to 0.006 µg/mL (≈ 0.0209 µM). Further, in assay [1], the IC50 is 17.4 nM.
In the assay with HIV, `CC(C)CC=C1c2ccccc2NC(=O)C12CCCC2` [Compound 67] returned an MIC below 0.1 µg/mL. Moreover, the IC50 in the assay with HIV is around 0.02 µg/mL (≈ 0.0742 µM); in assay [1] (molar value in parentheses), 91 nM; in assay [1], 89.1 nM.
